Experimental data: patent US11026944B2, “Compositions and methods for treating insomnia” (Eisai R&D Management Co., Ltd., priority 2014, dated 2021)

Legend:
healthy subjects = experiment: 001 Study Part A: sleepiness measures KSS, DSST, PVT; assay type: in vivo, human
Protocol: For Part A, 64 healthy subjects were enrolled into cohorts sequentially in a gradual dose escalation manner, to receive either compound A or placebo, and stratified by gender. Each cohort comprised six compound A- and two placebo-treated subjects. All study drugs were administered as single doses using one or more compound A-capsules or compound A-matched placebo capsules due to the test dose. After screening, subjects underwent baseline procedures and randomization on Day-2. Subjects were dosed on Day 1 in the morning after an overnight fast, 1 hour after lights-on. PK blood samples were collected at prespecified timepoints, and PD assessments were performed. Subjects were administered assessments on Day 1 predose and every 2 hours from 2 to 12 hours postdose, and each morning on Days 2 to 6.
These assessments included the Karolinska Sleepiness Scale (KSS), Digit Symbol Substitution Test (DSST), and Psychomotor Vigilance Test (PVT) in order to assess daytime sleepiness, level of alertness, and ability to concentrate. Waketime Questionnaires were administered after PD assessments each morning on Days 1 to Day 6. Time and duration of naps was recorded on Days 1 and 2. Safety was monitored throughout the study. […]

[1] = tested on: subjects with primary insomnia; experiment: 001 Study Part B: polysomnography (LPS, WASO, SE); assay type: in vivo, human
Excerpt: For Part B, 58 otherwise healthy subjects with primary insomnia were randomized across three cohorts, and stratified by gender. Part B also included an active control (zolpidem) and matching placebo. In each cohort, there were approximately 12 subjects in the compound A/zolpidem-matched placebo group, approximately four subjects in the zolpidem/compound A-matched placebo group, and approximately four subjects in the compound A-matched placebo/zolpidem-matched placebo group. Part B dosing occurred in the evening, 30 minutes prior to the sleep period. The starting dose for Part B was 3 dose levels that determined to be safe and well tolerated in Part A. Subsequent dose levels in Part B were determined based on the PD results of the first cohort in Part B and PD and safety results from at least 3 completed higher dose cohorts in Part A. Each cohort in Part B was divided into at least two groups, with dosing of each group staggered by a minimum of 2 days.
After the initial Screening visit, eligible subjects were scheduled to return to the clinic for 2 days during the Screening Period to conduct screening/baseline PSGs. These two days occurred at least 3 days after the initial Screening visit and within a window from Day-7 to Day-6 (±2 days). The first PSG was used to screen for sleep apnea and periodic limb movements in sleep (PLMS) and serve as the first baseline PSG. The second PSG was used as the second baseline PSG. Specific PSG variables were used to determine whether subjects met PSG inclusion criteria, and the average of PSG variables from these two PSGs was used as Baseline for this PD measure. Subjects who had met PSG inclusion criteria returned to the clinic on Day-1 for additional baseline procedures and randomization. Subjects were not allowed to nap on Day 1. On the evening of Day 1, after fasting a minimum of 3 hours, study drug was administered 30 minutes prior to the subject's habitual bedtime (lights-out), as calculated from the sleep diary for the first PSG during the Screening Period. PK blood samples were collected at prespecified timepoints, and PD assessments were performed. PSG was recorded on Day 1, postdose. Subjects were administered additional PD assessments each morning on Day 1 through Day 6. These assessments included the KSS, DSST, and PVT, in order to assess daytime sleepiness, level of alertness, and ability to concentrate. The KSS and DSST were also administered 5 minutes predose and 25 minutes postdose on Day 1, just prior to lights-out. Waketime Questionnaires were administered after the PD assessments within 15 minutes of lights-on, on Day 1 to Day 6. Time and duration of naps was recorded on Day 2.
In addition, PSG was performed during the Screening Period at Days-7 and -6 (±2 days), and postdose on Day 1. An 8-hour diagnostic PSG consisting of electroencephalogram (EEG), electrooculogram (EOG), electromyogram (EMG), ECGs, leg electrodes, and measures of respiratory function (airflow, respiratory effort, and oxygen saturation) were performed starting at the subject's habitual bedtime as determined from the sleep diary for the 3 nights immediately prior to the first PSG on Day-7 (±2 days). PSG variables from this night were used to screen for sleep apnea and PLMS. On Day-6 (±2) and postdose on Day1, standard PSGs (i.e., not including leg electrodes or measures of respiratory function other than oxygen saturation) were performed. Specified PSG variables from these two PSGs conducted during the Screening Period were used to determine whether subjects met PSG inclusion criteria. The average of PSG variables from these two PSGs conducted during the Screening Period were used as baseline PSG values. The key PD parameters such as PSG LPS, TST, SE, and WASO have been obtained from all PSG recordings.

SMILES: Cc1ncc(OC[C@@]2(c3cccc(F)c3)C[C@H]2C(=O)Nc2ccc(F)cn2)c(C)n1 [Compound A, (1R,2 S)-2-(((2,4-dimethylpyrimidin-5-yl)oxy)methyl)-2-(3-fluorophenyl)-N-(5-fluoropyridin-2-yl) cyclopropanecarboxamide]
- time of maximal pharmacodynamic response on KSS, DSST, PVT (healthy subjects; postdose, coinciding with Cmax): ~2 h
- measures of sleepiness (KSS, DSST, PVT) (healthy subjects; single morning doses 1-200 mg): general dose-response relationship
- LPS reduction relative to Baseline ([1]; single 2.5 mg evening dose): approximately 30 minutes
- WASO reduction relative to Baseline ([1]; single 2.5 mg evening dose): approximately 30 minutes
- LPS reduction relative to Baseline ([1]; single 10 mg evening dose): approximately 30 minutes
- WASO reduction relative to Baseline ([1]; single 10 mg evening dose): approximately 30 minutes
- LPS reduction relative to Baseline ([1]; single 25 mg evening dose): approximately 45 minutes
- WASO reduction relative to Baseline ([1]; single 25 mg evening dose): more than 45 minutes
